The target of one test is T1, LRRK2 phospho-Ser935 (Homo sapiens, UniProt Q5S007).
T1 construct: expressed in transfected cells
Briefly: Cellular LRRK2 phosphoserine 935 dephosphorylation spotblot assay in SH-SY5Y cells stably expressing 3xFlag-LRRK2. Format: cell-based. The note with it: for Phosphorylation level relative to solvent (%) (cellular pS935 assay): @ 5 μM for 2 h, SH-SY5Y stably expressing LRRK2, pS935/total LRRK2; for Cellular pS935 (% @ 5 μM): pS935 level as % of control, 5 μM for 2 h.

Test [1] addresses T2, full length LRRK2 protein (Homo sapiens, UniProt Q5S007).
T2 construct: compounds were tested in triplicate with full length LRRK2 protein; made in house
Briefly: In vitro LRRKtide kinase assay with full length recombinant LRRK2, dose-response (IC50/pIC50). It counts as biochemical.

The subject of a further test is LRRK2. Particulars: 2011, read-out: IC50 in vitro LRRK2, published, cited from earlier work.
Test [2] has as its system LRRK2 pS935. Also on record: method as in Dzamko et al., 2010; Deng et al., 2011. Particulars: ref Dzamko et al., 2010; Deng et al., 2011; read-out: IC50 pS935 levels, western blot; cited from earlier work. On the technique in general: Immunoblotting shows a protein as a band on a membrane.
The test system of test [3] is LRRK2 pS935. On the set-up: method as in Hermanson et al., 2012. The note with it: ref Hermanson et al., 2012; read-out: IC50 pS935 levels, time-resolved FRET; cited from earlier work.
Test [4] deals with LRRK2 pS935. Also on record: method as in Delbroek et al., 2013. Particulars: ref Delbroek et al., 2013; read-out: IC50 pS935 levels, ELISA; cited from earlier work. On the technique in general: In an ELISA, binding on a coated surface is turned into a signal by an enzyme label.
The target of test [5] is T3, GST-tagged truncated LRRK2 containing residues 970 to 2527 (Homo sapiens, UniProt Q5S007).
T3 construct: GST-tagged truncated LRRK2 containing residues 970 to 2527 (Life Technologies); purchased Life Technologies
T3 sequence (Q5S007 970-2527): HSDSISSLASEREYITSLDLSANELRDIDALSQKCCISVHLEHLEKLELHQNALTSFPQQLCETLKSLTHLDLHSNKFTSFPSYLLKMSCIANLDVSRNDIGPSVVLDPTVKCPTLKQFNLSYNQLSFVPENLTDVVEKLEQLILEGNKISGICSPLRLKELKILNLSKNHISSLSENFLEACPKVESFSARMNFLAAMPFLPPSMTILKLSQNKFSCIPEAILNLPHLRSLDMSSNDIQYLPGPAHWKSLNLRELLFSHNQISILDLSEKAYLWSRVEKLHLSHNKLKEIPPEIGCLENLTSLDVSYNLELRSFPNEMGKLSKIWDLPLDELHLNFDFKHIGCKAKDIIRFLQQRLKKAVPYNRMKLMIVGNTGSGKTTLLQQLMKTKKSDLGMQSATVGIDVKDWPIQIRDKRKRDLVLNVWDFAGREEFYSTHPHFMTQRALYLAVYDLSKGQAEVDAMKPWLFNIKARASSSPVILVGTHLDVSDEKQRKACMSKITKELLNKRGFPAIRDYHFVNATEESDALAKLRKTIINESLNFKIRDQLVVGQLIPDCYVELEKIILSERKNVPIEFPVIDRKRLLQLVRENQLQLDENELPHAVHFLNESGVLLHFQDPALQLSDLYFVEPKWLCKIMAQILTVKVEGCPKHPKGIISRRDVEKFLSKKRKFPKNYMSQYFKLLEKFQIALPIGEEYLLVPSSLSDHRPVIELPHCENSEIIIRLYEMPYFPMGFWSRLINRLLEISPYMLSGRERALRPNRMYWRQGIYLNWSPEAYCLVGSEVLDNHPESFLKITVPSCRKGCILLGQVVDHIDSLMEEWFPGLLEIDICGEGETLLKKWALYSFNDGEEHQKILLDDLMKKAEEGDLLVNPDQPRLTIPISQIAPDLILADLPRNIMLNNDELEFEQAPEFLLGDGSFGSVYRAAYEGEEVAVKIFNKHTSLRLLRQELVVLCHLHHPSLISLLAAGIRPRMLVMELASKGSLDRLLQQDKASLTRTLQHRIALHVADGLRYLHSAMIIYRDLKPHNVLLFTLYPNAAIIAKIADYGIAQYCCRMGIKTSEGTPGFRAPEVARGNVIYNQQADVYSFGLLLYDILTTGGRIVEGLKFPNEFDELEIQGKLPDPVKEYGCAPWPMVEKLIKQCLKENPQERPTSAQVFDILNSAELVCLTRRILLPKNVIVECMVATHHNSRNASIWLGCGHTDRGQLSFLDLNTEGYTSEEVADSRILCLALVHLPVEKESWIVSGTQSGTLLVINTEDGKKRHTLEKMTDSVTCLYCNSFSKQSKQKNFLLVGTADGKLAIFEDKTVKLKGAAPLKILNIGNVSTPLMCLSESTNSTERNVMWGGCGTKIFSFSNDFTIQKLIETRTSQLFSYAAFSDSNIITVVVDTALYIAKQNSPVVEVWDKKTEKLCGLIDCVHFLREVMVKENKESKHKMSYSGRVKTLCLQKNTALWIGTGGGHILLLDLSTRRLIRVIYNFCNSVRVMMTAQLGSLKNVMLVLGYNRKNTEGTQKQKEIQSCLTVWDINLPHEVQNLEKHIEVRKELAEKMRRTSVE
Briefly: In vitro LRRKtide peptide-substrate kinase assay, single dose testing (10 μM). Format: biochemical. Particulars: LRRKtide assay @ 10 μM inhibitor; GST-LRRK2 970-2527; 10 μM ATP; mean, N = 3; solvent control = 100%.

Setting [6] is: SH-SY5Y cells with stable expression of LRRK2.
Setting [7] is: LRRKtide phosphorylation, dose-response, read-out: IC50 in vitro (lrrktide).
Setting [8] is: pS935 dephosphorylation, SH-SY5Y cells with stable expression of LRRK2, read-out: IC50 cellular (pS935).
[9] abbreviates: LRRKtide phosphorylation, dose-response.
[10] abbreviates: pS935 dephosphorylation, SH-SY5Y cells with stable expression of LRRK2.

Like-named read-outs stand apart in the source and are kept apart here.

As usually defined, the IC50 is the concentration needed to halve the response being measured.

T2 sequence (Q5S007 whole entry): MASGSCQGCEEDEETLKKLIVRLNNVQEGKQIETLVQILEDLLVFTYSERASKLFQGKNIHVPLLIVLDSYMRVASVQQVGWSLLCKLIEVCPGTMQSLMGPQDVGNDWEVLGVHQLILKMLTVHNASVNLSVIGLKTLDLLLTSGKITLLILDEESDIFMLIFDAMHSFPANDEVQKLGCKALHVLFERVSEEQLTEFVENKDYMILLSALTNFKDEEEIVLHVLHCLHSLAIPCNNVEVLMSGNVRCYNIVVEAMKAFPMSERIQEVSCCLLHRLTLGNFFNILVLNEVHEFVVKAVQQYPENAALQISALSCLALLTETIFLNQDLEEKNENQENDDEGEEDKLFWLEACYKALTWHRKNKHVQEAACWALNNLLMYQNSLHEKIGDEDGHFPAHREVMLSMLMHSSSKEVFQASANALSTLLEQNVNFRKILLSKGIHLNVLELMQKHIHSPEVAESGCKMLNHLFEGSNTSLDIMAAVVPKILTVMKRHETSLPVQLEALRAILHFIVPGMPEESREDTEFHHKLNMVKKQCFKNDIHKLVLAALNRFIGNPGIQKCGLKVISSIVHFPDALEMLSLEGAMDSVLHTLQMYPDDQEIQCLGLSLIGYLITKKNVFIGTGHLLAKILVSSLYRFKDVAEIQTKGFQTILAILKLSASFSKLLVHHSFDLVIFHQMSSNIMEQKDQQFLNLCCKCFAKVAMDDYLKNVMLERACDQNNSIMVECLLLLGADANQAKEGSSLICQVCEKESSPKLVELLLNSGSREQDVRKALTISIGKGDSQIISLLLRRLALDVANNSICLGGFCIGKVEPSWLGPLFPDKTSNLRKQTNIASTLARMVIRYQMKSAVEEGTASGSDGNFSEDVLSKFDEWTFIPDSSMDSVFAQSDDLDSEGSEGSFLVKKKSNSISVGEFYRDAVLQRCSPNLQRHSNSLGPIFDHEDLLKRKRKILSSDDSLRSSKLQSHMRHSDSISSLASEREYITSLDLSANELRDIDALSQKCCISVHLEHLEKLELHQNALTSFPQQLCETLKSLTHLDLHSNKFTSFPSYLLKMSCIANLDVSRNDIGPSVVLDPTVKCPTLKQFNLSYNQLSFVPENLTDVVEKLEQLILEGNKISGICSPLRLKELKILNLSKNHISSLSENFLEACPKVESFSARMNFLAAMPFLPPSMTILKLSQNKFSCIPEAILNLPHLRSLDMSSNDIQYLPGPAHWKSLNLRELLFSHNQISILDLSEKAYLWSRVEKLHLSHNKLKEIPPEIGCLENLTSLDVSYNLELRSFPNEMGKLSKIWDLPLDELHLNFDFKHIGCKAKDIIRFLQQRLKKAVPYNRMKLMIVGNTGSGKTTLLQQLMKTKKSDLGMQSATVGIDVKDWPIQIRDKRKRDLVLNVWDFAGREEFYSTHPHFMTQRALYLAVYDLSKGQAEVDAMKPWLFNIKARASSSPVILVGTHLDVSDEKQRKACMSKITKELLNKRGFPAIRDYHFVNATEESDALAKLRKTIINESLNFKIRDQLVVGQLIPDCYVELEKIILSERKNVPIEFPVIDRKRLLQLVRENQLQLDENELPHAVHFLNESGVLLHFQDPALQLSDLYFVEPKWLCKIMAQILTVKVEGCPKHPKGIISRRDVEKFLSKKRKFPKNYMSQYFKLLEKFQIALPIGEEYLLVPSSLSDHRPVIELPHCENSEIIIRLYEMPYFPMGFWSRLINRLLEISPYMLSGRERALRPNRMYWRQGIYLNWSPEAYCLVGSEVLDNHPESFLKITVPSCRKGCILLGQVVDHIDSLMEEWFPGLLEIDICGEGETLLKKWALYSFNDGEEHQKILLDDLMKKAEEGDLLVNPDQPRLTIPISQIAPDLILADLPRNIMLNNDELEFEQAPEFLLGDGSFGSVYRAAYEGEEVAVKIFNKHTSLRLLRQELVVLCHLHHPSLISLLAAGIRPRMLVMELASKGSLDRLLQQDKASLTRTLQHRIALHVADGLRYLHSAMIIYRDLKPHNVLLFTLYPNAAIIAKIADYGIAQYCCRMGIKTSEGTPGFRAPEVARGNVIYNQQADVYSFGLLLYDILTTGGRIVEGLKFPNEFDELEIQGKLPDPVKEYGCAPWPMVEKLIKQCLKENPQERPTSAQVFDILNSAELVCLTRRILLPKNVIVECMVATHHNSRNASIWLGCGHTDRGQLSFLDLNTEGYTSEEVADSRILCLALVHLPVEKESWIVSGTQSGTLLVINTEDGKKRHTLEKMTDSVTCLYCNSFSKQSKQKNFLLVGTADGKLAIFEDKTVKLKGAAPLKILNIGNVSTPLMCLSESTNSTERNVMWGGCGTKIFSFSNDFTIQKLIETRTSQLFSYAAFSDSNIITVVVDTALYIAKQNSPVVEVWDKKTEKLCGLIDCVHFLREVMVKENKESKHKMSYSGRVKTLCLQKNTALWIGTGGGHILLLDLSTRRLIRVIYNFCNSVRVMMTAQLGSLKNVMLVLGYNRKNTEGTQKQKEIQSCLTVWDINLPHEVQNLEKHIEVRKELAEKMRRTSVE
T1 sequence (Q5S007 whole entry): as above

`COc1cc(N2CCOCC2)ccc1Nc1ncc(F)c(Nc2ccccc2NS(C)(=O)=O)n1` [CZC-25146]: the figures for the IC50 (on LRRK2 phospho-Ser935 (read-out: IC50 of phosphorylation at LRRK2 Ser935 (cellular spotblot)); in test [1] (read-out: IC50 (LRRKtide phosphorylation assay)); with LRRK2 (ref Ramsden et al.)) were 61 nM, 1.78 nM and 4.76 nM, respectively.

As to `COc1cc(C(=O)N2CCC(N3CCN(C)CC3)CC2)ccc1Nc1ncc2c(n1)N(C)c1ccccc1C(=O)N2C` [LRRK2-IN1], the IC50 is 239 nM on LRRK2 phospho-Ser935 (SH-SY5Y stably overexpressing 3flag-LRRK2 WT, N ≥ 5, read-out: IC50 of phosphorylation at LRRK2 Ser935 (cellular spotblot)); 3.54 nM in test [1] (full length LRRK2, 10 μM ATP, read-out: IC50 (LRRKtide phosphorylation assay)); roughly 100 nM with LRRK2 pS935 [2]; 13 nM in the test on LRRK2 (100 μM ATP in original study, ref Deng et al.); 90 to 200 nM in the test on LRRK2 pS935 [3]; 50 to 100 nM in the test on LRRK2 pS935 [4].

Consider `CC(C)[C@H](CO)Nc1nc(Nc2cccc(Cl)c2)c2ncn(C(C)C)c2n1` [Purvalanol A], for which the “% LRRKtide phosphorylation relative to solvent” value in test [5] is given as 15.64%. In addition, at LRRK2 phospho-Ser935, the “Phosphorylation level relative to solvent (%) (cellular pS935 assay)” value was 121.26%. The “Cellular pS935 (% @ 5 μM)” value on LRRK2 phospho-Ser935 (setting [6]) amounted to 121.26%. Besides, the IC50 in test [1] (setting [7]) came out at 4570 nM.

In the case of `CN(C)S(=O)(=O)c1ccc2c(c1)/C(=C/c1cc3c([nH]1)CCCC3)C(=O)N2` [SU6656], in test [5], the “% LRRKtide phosphorylation relative to solvent” value came to 4.57%. The “Phosphorylation level relative to solvent (%) (cellular pS935 assay)” value at LRRK2 phospho-Ser935 is listed as 14.34%. For the same compound, the IC50 came to 423 nM at LRRK2 phospho-Ser935 (setting [8]) and 10 nM in test [1] (setting [7]). The “Cellular pS935 (% @ 5 μM)” value at LRRK2 phospho-Ser935 (setting [6]) amounted to 14.34%.

Turning to `COc1ccc2c(c1)/C(=C/c1cnc[nH]1)C(=O)N2` [SU9516], in test [5], the “% LRRKtide phosphorylation relative to solvent” value worked out at 2.99%. In addition, the “Phosphorylation level relative to solvent (%) (cellular pS935 assay)” value on LRRK2 phospho-Ser935 is reported as 94.62%. Also, the “Cellular pS935 (% @ 5 μM)” value at LRRK2 phospho-Ser935 (setting [6]) worked out at 94.62%. Also, the IC50 in test [1] (setting [7]) came to 2100 nM.

In the case of `CCN(CC)CCNC(=O)c1c(C)[nH]c(/C=C2\C(=O)Nc3ccc(Cl)cc32)c1C` [SU11652], the “% LRRKtide phosphorylation relative to solvent” value in test [5] was 0.79%. For the same compound, the “Phosphorylation level relative to solvent (%) (cellular pS935 assay)” value at LRRK2 phospho-Ser935 is recorded as 14.19%. For the same compound, the results for the IC50 (at LRRK2 phospho-Ser935 (setting [8]); in test [1] (setting [7])) were 316 nM and 10.9 nM, respectively. Also, the “Cellular pS935 (% @ 5 μM)” value at LRRK2 phospho-Ser935 (setting [6]) is 14.19%.

Turning to `COc1cc2ncnc(Nc3ccc(Oc4ccccc4)cc3)c2cc1OC` [Src kinase inhibitor I], the “% LRRKtide phosphorylation relative to solvent” value in test [5] came out at 27.12%. In addition, the “Phosphorylation level relative to solvent (%) (cellular pS935 assay)” value on LRRK2 phospho-Ser935 came out at 61.51%. Further, the “Cellular pS935 (% @ 5 μM)” value at LRRK2 phospho-Ser935 (setting [6]) amounted to 61.51%. Besides, the “pIC50 in vitro (lrrktide)” value in test [1] (setting [9]) is listed as 6.03. The IC50 in test [1] (setting [7]) turned out to be 936 nM.

With `Cc1cc(C)c(/C=C2\C(=O)Nc3ccccc32)[nH]1` [VEGF receptor 2 kinase inhibitor III], the “% LRRKtide phosphorylation relative to solvent” value in test [5] was determined as 2.19%. Further, the “Phosphorylation level relative to solvent (%) (cellular pS935 assay)” value on LRRK2 phospho-Ser935 is listed as 45.08%. Also, the “pIC50 cellular (pS935)” value against LRRK2 phospho-Ser935 (setting [10]) is listed as less than 5.7. In addition, the IC50 on LRRK2 phospho-Ser935 (setting [8]) was greater than 2000 nM; in test [1] (setting [7]), 273 nM. The “Cellular pS935 (% @ 5 μM)” value on LRRK2 phospho-Ser935 (setting [6]) came to 45.08%. Also, in test [1] (setting [9]), the “pIC50 in vitro (lrrktide)” value came out at 6.56.

On to `O=C1Nc2ccc(Br)cc2/C1=C/c1cc2c([nH]1)CCCC2` [VEGF receptor 2 kinase inhibitor II], for which the “% LRRKtide phosphorylation relative to solvent” value in test [5] was 4.13%. In addition, the “Phosphorylation level relative to solvent (%) (cellular pS935 assay)” value at LRRK2 phospho-Ser935 was found to be 37.26%. Moreover, at LRRK2 phospho-Ser935 (setting [10]), the “pIC50 cellular (pS935)” value is on record as less than 5.7. Further, the IC50 at LRRK2 phospho-Ser935 (setting [8]) was greater than 2000 nM; in test [1] (setting [7]) it was 36.3 nM. At LRRK2 phospho-Ser935 (setting [6]), the “Cellular pS935 (% @ 5 μM)” value is 37.26%. In addition, the “pIC50 in vitro (lrrktide)” value in test [1] (setting [9]) is 7.44.

Turning to `CCOC(=O)c1c(C)[nH]c(/C=C2\C(=O)Nc3ccccc32)c1C` [VEGF receptor 2 kinase inhibitor I], the “% LRRKtide phosphorylation relative to solvent” value in test [5] came to 26.67%. Also, on LRRK2 phospho-Ser935, the “Phosphorylation level relative to solvent (%) (cellular pS935 assay)” value was 60.83%. Further, the “Cellular pS935 (% @ 5 μM)” value on LRRK2 phospho-Ser935 (setting [6]) was 60.83%. For the same compound, in test [1] (setting [9]), the “pIC50 in vitro (lrrktide)” value stood at 7.61. The IC50 in test [1] (setting [7]) was 24.6 nM.

With BPIQ-I, the “% LRRKtide phosphorylation relative to solvent” value in test [5] stood at 17.30%. The “Phosphorylation level relative to solvent (%) (cellular pS935 assay)” value at LRRK2 phospho-Ser935 turned out to be 88.55%. The “Cellular pS935 (% @ 5 μM)” value on LRRK2 phospho-Ser935 (setting [6]) was 88.55%. Besides, the “pIC50 in vitro (lrrktide)” value in test [1] (setting [9]) was determined as 5.12. In addition, the IC50 in test [1] (setting [7]) is 7650 nM.
